How the values were obtained:
[1] = molecular target: human serum albumin (HSA) (Homo sapiens, UniProt P02768); assay: Weak affinity chromatography of steroids on HSA column; assay type: binding; conditions: for k′ (capacity factor), Column D: HSA 99% purity, 118 mg/g silica, 20° C.; for Kd: Column D, HSA 99% purity column
Method: (§1) Four columns were prepared, a blank diol-silica column (column A) having no binding ligands and 3 columns (columns B, C, D) loaded with albumin as the binding ligand. Column B was a silica packed column (7 μm, 300 Å porosity) loaded with 96% purity bovine serum albumin (BSA) at a concentration of 66 mg of BSA per gram of silica. Column C was a silica packed column (7 μm, 300 Å porosity) loaded with 99% purity bovine serum albumin (BSA) at a concentration of 77 mg of BSA per gram of silica. Column D was a silica packed column (7 μm, 300 Å porosity) loaded with 99% purity human serum albumin (HSA) at a concentration of 118 mg of HSA per gram of silica. All four column dimensions were 2.1×50 mm stainless steel. Immobilization of the ligands was performed batchwise with periodate activation. 0.5 g of diol-silica was used with 5 ml of H2O added. The silica was sonicated for 2 minutes, and 0.5 g of periodic acid was added to convert the diol groups to aldehyde-groups. After 2 hours of mixing, the aldehyde-silica was washed with 100 mM phosphate, pH 7.0. 5 ml of the respective ligand in 100 mM phosphate buffer, pH 7.0, was prepared. Ligand concentration was 10 mg/ml. 250 μl NaCNBH3, concentration of 0.1 mg/ml, was added. Coupling time was 40 hours at room temperature (22° C.) on mixing table.
(§2) The system comprised the columns used in an Agilent 1200-LC-MS system. The steroids were all dissolved in ethanol at a concentration of 0.05 μg/μl. 2 μl samples were run in duplicate. Solvent buffers used included phosphate buffered saline (PBS) at pH 7.4 and 5 mM ammonium-acetate (Am-Ac) salt, pH 6.9. Column temperature was 20° C. with a flow rate of 0.400 ml/min. Detection included the use of UV diode-array detector (DAD) at 237 nm.
(§3) The columns were tested with the PBS buffer and the Am-Ac listed above. The capacity factor (k′) and dissociation constant (Kd) were determined as set forth in U.S. Pat. No. 4,879,247 issued on Nov. 7, 1989 to Sten Ohlson, which is hereby incorporated by reference in its entirety.

[2] = molecular target: bovine serum albumin (BSA) (Bos taurus, UniProt P02769); assay: Weak affinity chromatography of steroids on BSA columns (columns B, C); assay type: binding; conditions: for k′ (capacity factor), Column B: 66 mg/g silica; for k′ (capacity factor), Column B / k′ (capacity factor), Column C: 20° C.; for k′ (capacity factor), Column C: 77 mg/g silica
Method: as §1, §2, §3

[3] = Column B, 5 mM Am-Ac buffer pH 6.9, BSA 96% purity
[4] = Column B, PBS buffer pH 7.4, BSA 96% purity
[5] = Column C, 5 mM Am-Ac buffer pH 6.9, BSA 99% purity
[6] = Column C, PBS buffer pH 7.4, BSA 99% purity

Chain of bovine serum albumin (BSA) (P02769 25-607): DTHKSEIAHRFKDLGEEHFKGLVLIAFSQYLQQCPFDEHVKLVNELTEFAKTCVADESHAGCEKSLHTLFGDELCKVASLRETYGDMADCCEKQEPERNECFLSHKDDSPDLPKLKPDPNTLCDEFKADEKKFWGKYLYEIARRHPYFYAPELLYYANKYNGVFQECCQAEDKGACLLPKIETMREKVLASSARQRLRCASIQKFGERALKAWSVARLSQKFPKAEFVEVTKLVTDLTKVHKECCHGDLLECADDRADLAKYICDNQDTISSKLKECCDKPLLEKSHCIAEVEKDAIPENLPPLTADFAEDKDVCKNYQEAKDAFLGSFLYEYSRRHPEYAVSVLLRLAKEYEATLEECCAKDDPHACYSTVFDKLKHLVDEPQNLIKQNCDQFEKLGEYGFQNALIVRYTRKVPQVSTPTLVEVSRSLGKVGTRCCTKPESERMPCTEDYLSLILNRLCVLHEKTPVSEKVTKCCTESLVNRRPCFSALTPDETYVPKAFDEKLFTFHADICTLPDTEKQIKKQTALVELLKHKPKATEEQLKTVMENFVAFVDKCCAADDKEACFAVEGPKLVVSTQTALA
Chain of human serum albumin (HSA) (P02768 25-609): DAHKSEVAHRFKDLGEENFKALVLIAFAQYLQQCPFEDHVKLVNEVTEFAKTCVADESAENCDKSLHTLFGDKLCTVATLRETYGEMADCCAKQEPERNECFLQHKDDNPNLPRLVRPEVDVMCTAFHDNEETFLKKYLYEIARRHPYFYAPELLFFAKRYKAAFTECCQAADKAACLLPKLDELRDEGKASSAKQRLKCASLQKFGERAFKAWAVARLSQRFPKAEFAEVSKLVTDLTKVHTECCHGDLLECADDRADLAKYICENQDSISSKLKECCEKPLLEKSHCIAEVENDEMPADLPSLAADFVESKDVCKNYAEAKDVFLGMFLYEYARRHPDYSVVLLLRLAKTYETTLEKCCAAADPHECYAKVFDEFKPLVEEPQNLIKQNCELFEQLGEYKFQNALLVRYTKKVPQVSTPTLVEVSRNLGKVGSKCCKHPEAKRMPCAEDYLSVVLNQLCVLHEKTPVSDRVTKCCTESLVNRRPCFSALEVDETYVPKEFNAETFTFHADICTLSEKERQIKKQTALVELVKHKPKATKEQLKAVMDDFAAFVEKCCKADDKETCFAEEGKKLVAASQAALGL

Compound	k′ (capacity factor), Column D ([1]; 5 mM Am-Ac buffer pH 6.9)	Kd ([1]; 5 mM Am-Ac buffer pH 6.9)	Kd ([1]; PBS buffer pH 7.4)	k′ (capacity factor), Column D ([1]; PBS buffer pH 7.4)	k′ (capacity factor), Column B ([2]; 5 mM Am-Ac buffer pH 6.9, BSA 96% purity)	k′ (capacity factor), Column C ([2]; 5 mM Am-Ac buffer pH 6.9, BSA 99% purity)	Kd [2, 3]	Kd [2, 4]	Kd [2, 5]	Kd [2, 6]	k′ (capacity factor), Column B ([2]; PBS buffer pH 7.4, BSA 96% purity)	k′ (capacity factor), Column C ([2]; PBS buffer pH 7.4, BSA 99% purity)
C[C@]12C=CC(=O)C=C1CC[C@@H]1[C@@H]2C(=O)C[C@@]2(C)[C@H]1CC[C@]2(O)C(=O)CO [Prednisone, prednisone]	1.78	523 µM	516 µM	1.74	1.01	1.17	288 µM	274 µM	260 µM	250 µM	1.07	1.23
C[C@]12C=CC(=O)C=C1CC[C@@H]1[C@@H]2[C@@H](O)C[C@@]2(C)[C@H]1CC[C@]2(O)C(=O)CO [Prednisolone, prednisolone]		596 µM	602 µM				257 µM	230 µM	227 µM	216 µM		
